Reference: patent publication US10399992B2, “Process for preparing AD-35” (Zhejiang Hisun Pharmaceutical Co., Ltd., priority 2016, dated 2019)

Assays:
[1] = acute toxicity test in mice; settings: compared with donepezil
[2] = chelation of transition metal ions in vitro; format: physicochemical
[3] = tested on: TNF-α; experiment: rat model of Alzheimer's disease induced by Aβ25-35: TNF-α production and release; format: in vivo
[4] = tested on: IL-1β; experiment: rat model of Alzheimer's disease induced by Aβ25-35: IL-1β production and release; format: in vivo
[5] = molecular target: acetylcholinesterase (Homo sapiens, UniProt P22303); experiment: inhibiting acetylcholinesterase in vitro; format: biochemical; settings: compared with donepezil
[6] = tested on: nerve cells; experiment: rat model of Alzheimer's disease induced by Aβ25-35: toxicity of Aβ25-35 to nerve cells; format: in vivo
[7] = Phase 1 Clinical Single Ascending Dose study (SAD); format: in vivo; settings: subjects; 90 mg in a single dose
[8] = Morris water maze test; format: in vivo; settings: compared with donepezil

acetylcholinesterase, sequence (P22303 32-614): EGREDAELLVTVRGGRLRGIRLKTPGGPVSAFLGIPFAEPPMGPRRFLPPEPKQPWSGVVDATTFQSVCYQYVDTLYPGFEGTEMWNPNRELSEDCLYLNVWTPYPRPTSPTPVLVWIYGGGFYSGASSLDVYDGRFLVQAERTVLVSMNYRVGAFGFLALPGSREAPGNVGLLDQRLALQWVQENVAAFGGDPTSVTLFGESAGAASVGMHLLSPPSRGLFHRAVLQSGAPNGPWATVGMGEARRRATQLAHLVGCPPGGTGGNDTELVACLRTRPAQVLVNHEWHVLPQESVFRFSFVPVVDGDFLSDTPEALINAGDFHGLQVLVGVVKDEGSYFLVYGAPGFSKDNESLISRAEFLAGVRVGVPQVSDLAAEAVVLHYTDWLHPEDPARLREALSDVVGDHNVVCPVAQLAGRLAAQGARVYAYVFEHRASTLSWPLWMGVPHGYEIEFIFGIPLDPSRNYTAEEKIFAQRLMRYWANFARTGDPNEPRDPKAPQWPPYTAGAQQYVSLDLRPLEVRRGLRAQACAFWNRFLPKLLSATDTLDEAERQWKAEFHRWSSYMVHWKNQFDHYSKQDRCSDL

## O=C1c2cc3c(cc2C2(CC2)N1CCC1CCN(Cc2ccccn2)CC1)OCO3 [AD-35, 6-[2-[1-(2-pyridylmethyl)-4-piperidinyl]ethyl]spiro[[1,3]dioxolo[4,5-f]isoindole-7,1′-cyclopropane]-5-one phosphate]
[1]
  acute toxicity: much less toxic than donepezil
[2]
  ability to chelate transition metal ions such as Cu^2+: exhibits a certain ability to chelate transition metal ions
[3]
  production and release of pro-inflammatory cytokine TNF-α: significantly inhibit
[4]
  production and release of pro-inflammatory cytokine IL-1β: significantly inhibit
[5]
  activity of inhibiting acetylcholinesterase in vitro relative to donepezil: about one-tenth of the activity of donepezil
[6]
  toxicity of Aβ25-35 to nerve cells: greatly reduces the toxicity of Aβ25-35 to nerve cells
[7]
  adverse reactions: did not develop adverse reactions
[8]
  efficacy in the Morris water maze test (improving memory and learning ability): comparable efficacy to that of donepezil
